Assay results: US8148392B2, “2-indolyl imidazo [4,5-d] phenanthroline derivatives and their use in the treatment of cancer” (Lorus Therapeutics Inc., priority 2005, dated 2012)

What was measured:
[1] = test system: KLF4; assay: KLF4 binding to Cyclin D1 promoter, ChIP, HT-29; assay type: cell-based, human; conditions: HT-29, ChIP
Protocol: Based on overlapping transcription factor binding sites on Cyclin D1 gene promoter region (FIG. 33A), increased binding of a negative regulator KLF4 may replace the binding of a positive regulator Sp1. In vivo KLF4 and Sp1 binding to Cyclin D1 promoter was shown by chromatin immuno-precipitation assay (ChIP) (FIG. 33B).
Chromatin immunoprecipitation (ChIP) was performed as follows. Cell lysates from HT-29 cells (5.5×10^5 cells in three 15 cm-culture plates in each experimental group) were prepared at the end of the indicated experiments, and ChIP assays were performed using anti-KLF4 and anti-Sp1 antibodies (Santa Cruz Biotechnology Inc.) and ChIP-ITTM kit (Active Motif, Carlsbad, Calif.) by following the manufacturer's instruction. The primers encompassing-231 to -92 region of Cyclin D1 promoter; 5′ primer (5′-CGGACTACAGGGGCAA-3′) [SEQ ID NO:1] and 3′ primer (5′-GCTCCAGGACTTTGCA-3′) [SEQ ID NO:2] were synthesized at Invitrogen.

[2] = test system: MOLT-4 leukemia cell line; assay: NCI DTP in vitro screen, MOLT-4; assay type: cell-based; conditions: Homo sapiens
Protocol: For example, the following methodology, which is currently employed by the NCI, can be used to assess the GI50 of a candidate compound of Formula I in the selected cancer cell lines. Briefly, cell suspensions are diluted (5000-40,000 cells per well) and 100 μL of the diluted cell suspension is added into 96-well microtiter plates. Inoculates are allowed a preincubation period of 24 h at 37° C. for stabilization. Dilutions at twice the intended test concentration of the candidate compound are added at time zero in 100 μL aliquots to the microtiter plate wells. Test compounds are generally evaluated at five 10-fold dilutions. In routine testing, the highest well concentration is usually 10E-4 M, but this may be adjusted depending on the compound being tested. […] The cells are then assayed by using the sulforhodamine B assay (see, for example, Skehan, P., et al. (1990) JNCI, J. Natl. Cancer Inst. 82, 1107-1112; and Chen, S. F., et al. (1990) Proc. Am. Assoc. Cancer Res. 31, A2644) employing a plate reader which can be used to read the optical densities.
Compounds 2 and 3 were evaluated for their antiproliferative effects in a panel of 60 human cancer cell lines as part of the in vitro anticancer screening services provided by the DTP (Developmental Therapeutics Program) of the US National Cancer Institute (NCI).

[3] = test system: normal cell lines PrEC, HMEC, WI38 and cancer cell lines DU145, MDA-MB-435, HT-29; assay: Cancer cell selectivity, IC90 in normal versus cancer cell lines (XTT); assay type: cell-based, human; conditions: average IC90 of all normal / average IC90 of all cancer cell lines, 6 to 7 days
Text: An exemplary method of assessing the differential sensitivity between normal and cancer cells for a compound has been described by Vassilev et al. (Anti-Cancer Drug Design (2001) 16:7). This method involves the comparison of IC90 values, i.e. the molar concentration of a test compound required to cause 90% growth inhibition of exponentially growing cells. Thus, the IC90 values for candidate compounds can be evaluated in various cancer cell lines (such as those outlined above) and normal cells (such as HUVEC and/or WI38 cells) and compared. IC90 values can be measured using a variety of standard techniques as known in the art. Cancer cell selectivity is calculated as a ratio between the average IC90 for all normal cell lines and the average IC90 for all cancer cell lines. Compounds with an IC90 ratio (normal/cancer) of >4 are considered to be selective for cancer cells (L. T. Vassilev et al., Anti-cancer Drug Design, 2001, 16: 7-17).
The normal cells lines used were PrEC (prostate), HMEC (breast), and WI38 (lung fibroblast) cell lines and the cancer cells lines were DU145 (prostate), MDA-MB-435 (breast), HT-29 (colon). IC90 values were also determined for the controls doxorubicin and etoposide. The cells were cultured as generally described in Example 13. Various concentrations of the compounds were incubated with the cells for 6 to 7 days, and the number of proliferating cells was measured using the XTT assay. Cancer cell selectivity was calculated as a ratio between the average IC90 for all normal and the average IC90 for all cancer cell lines.

Compound: Cc1[nH]c2ccccc2c1-c1nc2c3cccnc3c3ncccc3c2[nH]1 [Compound 3]
- KLF4 binding to Cyclin D1 promoter [1]: Increased KLF4
- GI50 [2]: 16 nM
- Normal/cancer IC90 ratio [3]: >4.3
